Experiment [1] relates to Human immunodeficiency virus 1. The experiment in a line: Antiviral activity against HIV 1 subtype B harboring reverse transcriptase M230L mutant infected in human TZM-bl cells assessed as inhibition of viral growth by luciferase reporter gene assay. It is filed as functional, organism-based. The conditions noted are these: Human immunodeficiency virus 1, subtype B.
Experiment [2] deals with T1, Human immunodeficiency virus type 1 reverse transcriptase (Human immunodeficiency virus 1, UniProt Q72547). As to the kind of experiment: Inhibition of RNA-dependent DNA polymerase activity of wild type HIV1 subtype B reverse transcriptase by filter-based filtration assay.
In experiment [3] the target is T2, Human immunodeficiency virus type 1 reverse transcriptase (Human immunodeficiency virus 1, UniProt Q72547, M230L). As to the kind of experiment: Inhibition of DNA-dependent DNA polymerase activity of HIV1 subtype B reverse transcriptase M230L mutant by gel-based primer extension assay.
The test system of experiment [4] is Human immunodeficiency virus 1. As to the kind of experiment: Selectivity ratio of IC50 for DNA-dependent DNA polymerase activity of HIV1 subtype B reverse transcriptase M230L mutant to IC50 for DNA-dependent DNA polymerase activity of wild type HIV1 subtype B reverse transcriptase.
Experiment [5] relates to Human immunodeficiency virus 1. The experiment in a line: Antiviral activity against HIV 1 subtype B harboring wild type reverse transcriptase infected in human TZM-bl cells assessed as inhibition of viral growth by luciferase reporter gene assay. It is filed as functional, organism-based. The conditions noted are these: Human immunodeficiency virus 1, subtype B. On the technique in general: Reporter assays use an easily measured gene product as a stand-in for the process of interest.

The target of experiment [6] is T2, Human immunodeficiency virus type 1 reverse transcriptase. The experiment in a line: Inhibition of RNA-dependent DNA polymerase activity of HIV1 subtype B reverse transcriptase M230L mutant by filter-based filtration assay.
In experiment [7] the test system is Human immunodeficiency virus 1. The experiment in a line: Selectivity ratio of EC50 for antiviral activity against HIV 1 subtype B harboring reverse transcriptase M230L mutant to EC50 for antiviral activity against HIV 1 subtype B harboring wild type reverse transcriptase. It is filed as functional.
For experiment [8], the system named is Human immunodeficiency virus 1. As to the kind of experiment: Selectivity ratio of IC50 for RNA-dependent DNA polymerase activity of HIV1 subtype B reverse transcriptase M230L mutant to IC50 for RNA-dependent DNA polymerase activity of wild type HIV1 subtype B reverse transcriptase.
Experiment [9] addresses T1, Human immunodeficiency virus type 1 reverse transcriptase. As to the kind of experiment: Inhibition of DNA-dependent DNA polymerase activity of wild type HIV1 subtype B reverse transcriptase by gel-based primer extension assay.

SMILES strings stand for the structures.

What is called EC50 is the concentration at which the effect is half-maximal. The IC50 is the concentration that inhibits the measured activity by half. Lower therefore signals greater potency.

For the molecule `Cc1cc(C)c(Nc2ccnc(Nc3ccc(C#N)cc3)n2)c(C)c1` [DAPIVIRINE], the EC50 amounted to 5.8 nM in [1] and 0.91 nM in [5]. The IC50 came to 19 nM in experiment [2], 1290 nM in experiment [3], 172 nM in [6] and 131 nM in experiment [9]. Further, the Selectivity ratio in [4] came out at 9.9; in experiment [7], 6.4; in experiment [8], 9.1.
For `O=C1Nc2ccc(Cl)cc2[C@@](C#CC2CC2)(C(F)(F)F)O1` [EFAVIRENZ], the EC50 in [1] is 64.3 nM; in experiment [5], 3.57 nM.
In the same order, the values of `Cc1cc(C#N)cc(C)c1Oc1nc(Nc2ccc(C#N)cc2)nc(N)c1Br` [ETRAVIRINE] are 7.27 nM and 1.25 nM.
On the same counts, the results for `Cc1ccnc2c1NC(=O)c1cccnc1N2C1CC1` [NEVIRAPINE] are 2690 nM and 163 nM.

For the origin of these results see ChEMBL document CHEMBL1255481, “The M230L nonnucleoside reverse transcriptase inhibitor resistance mutation in HIV-1 reverse transcriptase impairs enzymatic function and viral replicative capacity” (Antimicrob Agents Chemother, 2010).
